Data from US20140328840A1, “MARKER AND TARGET FOR RESPONSIVENESS AND RESISTANCE TO CANCER AGENTS” (The Provost, Fellows, Foundation Scholars, and the Other …, priority 2011, published 2014).

Assays:
[1] = tested on: HCC1954 cells; assay: Resistance to HER-targeted drugs after exogenous NmU treatment; format: cell-based; conditions: HCC1954, exogenous NmU (NmU-25) 48 hours; all drugs
Experimental: (§1) To assess if functional NmU receptors are expressed on cells, SKBR3 and HCC1954, (1×10^6 cells) were seeded in 25 cm^2 flask, allowed attach overnight and subsequently treated with 1 μM of NmU-25 (Bachem, Switzerland) for 24-48 hours.

[2] = tested on: SKBR3-LR, HCC1954-LR, T47D and MDA-MB-361 cells; assay: Effects of NmU siRNAs with HER-targeted drugs on proliferation (acid phosphatase); format: cell-based
Experimental: (§2) Two siRNAs, designated NmU-1 (SEQ ID NO: 3; 5′-[…]-3′) and NmU-2 (SEQ ID NO: 4; 5′-[…]-3′) (s225456 and s21351, respectively, Ambion, UK), (30 nM) were used to target NmU. Scrambled siRNA (SCR) (AM4611, Ambion, UK) was used as negative control. Transient transfections were harvested 72 hours post-transfection for RNA and protein extraction. NmU full-length cDNA was sub-cloned from pOTB7 (clone ID3502168, Open Biosystems, Ireland) by PCR into pcDNA 3.1(+) zeo-plasmid vector (Invitrogen, Ireland). The construct was verified by DNA sequencing. Mock controls used were of pcDNA3.1(+) plasmid lacking NmU cDNA. Lipofectamine 2000 (Invitrogen, Ireland) was used for transfection following the manufacturer's instructions. Stable transfectants were established by selecting with zeocin (50 μg/ml and 300 μg/ml for HCC1954 and SKBR3 transfected cells, respectively; based on initial assessment of the toxicity of zeocin on these cells) (Invitrogen, Ireland).
(§3) To investigate if knock-down of NmU affected response to HER-targeting, cell lines with acquired Lapatinib-resistance (SKBR3-LR, HCC1954-LR) and innately unresponsive (MDA-MB-361, T47D) were assessed. […] Similarly, fixed concentrations of Neratinib (1 μM) and Afatinib (0.5 μM) were used. These were cultured for 72 hours and subsequently assessed using acid phosphate analysis.

[3] = tested on: NmU mRNA in HCC1954 cells; assay: Short-term drug exposure, qPCR of NmU mRNA in conditioned medium and cells; format: cell-based; conditions: 48 hours; for induced NmU mRNA in CM / induced NmU mRNA in cells: HCC1954, 0.5 μM, vs untreated control
Experimental: (§4) Conditioned medium (CM) was collected, centrifuged and filtered, as previously described (1-2), prior to NmU mRNA and protein analysis.
(§5) Total RNA was isolated from cell lines and CM using TriReagent (Sigma-Aldrich). In order to remove any potential contaminating genomic DNA, RNA was treated with DNase enzymes and minus reverse transcriptase enzyme controls verified no DNA/pseudogene contamination of starting material. cDNA was prepared from 500ng cell-derived and 4 μl CM-derived total RNA, respectively.

[4] = tested on: HCC1954-NmU cells; assay: Proliferation assay, NmU cDNA- versus mock-transfected cells; format: cell-based; conditions: HCC1954-NmU vs HCC1954-mock
Experimental: as §2
(§6) Cells with acquired-resistance compared to aged-parent cells and NmU cDNA-versus mock-transfected cells (HCC1954 variants, 2×10^3 cells/well; SKBR3 variants, 5×10^3 cells/well) were seeded for 24 hours prior to drug additions. […] Five days later, acid phosphatase assay was performed as previously detailed (3).

[5] = tested on: SKBR3-NmU cells; assay: as above; format: cell-based; conditions: SKBR3-NmU vs SKBR3-mock
Experimental: as §2, §6

[6] = tested on: SKBR3 cells; conditions: cited from earlier work
[7] = tested on: T47D; conditions: cited from earlier work
[8] = tested on: MDA-MB-361 cells; assay: Proliferation, previously determined IC50; format: cell-based; conditions: Homo sapiens; MDA-MB-361, previously determined; read-out: approximate IC50 concentration
Experimental: as §3

[9] = tested on: T47D cells; assay: Proliferation, previously determined IC50; format: cell-based; conditions: Homo sapiens, read-out: approximate IC50 concentration
Experimental: as §3

[10] = tested on: SKBR3-Ag cells; assay: Proliferation assay (acid phosphatase), aged parent SKBR3; format: cell-based; conditions: Homo sapiens, SK-BR-3, 120 h, read-out: concentration that inhibits 50% of proliferation (IC50), five days
Experimental: (§7) SKBR3, HCC1954, MDA-MB-361, T47D cells, obtained from ATCC, were cultured in RPMI-1640 (Sigma-Aldrich) with 10% FCS (PAA) and 1% L-glutamine. […] Lapatinib-resistant SKBR3 and HCC1954 cells (SKBR3-LR, HCC1954-LR) were established by continuously exposing cells to Lapatinib, starting with 5 nM and incrementally increasing to 250 nM over 6 months. Neratinib-resistant SKBR3 and HCC1954 cells (SKBR3-NR, HCC1954-NR) resulted from continuously exposing cells to Neratinib, starting with 10 nM and incrementally increasing to 250 nM over 6 months.
as §6

[11] = tested on: HCC1954-Ag cells; assay: Proliferation assay (acid phosphatase), aged parent HCC1954; format: cell-based; conditions: Homo sapiens, 120 h, read-out: concentration that inhibits 50% of proliferation (IC50), five days
Experimental: as §7, §6

[12] = tested on: MDA-MB-361; conditions: cited from earlier work
[13] = tested on: HCC1954 cells; conditions: cited from earlier work
[14] = tested on: SKBR3-LR cells; assay: Proliferation assay (acid phosphatase), Lapatinib-resistant SKBR3; format: cell-based
Experimental: as §7, §6

[15] = tested on: NmU mRNA in SKBR3 cells; assay: Short-term drug exposure, qPCR of NmU mRNA in conditioned medium and cells; format: cell-based; conditions: SKBR3, 1 μM, 48 hours, vs untreated control CM
Experimental: as §4, §5

[16] = tested on: HCC1954-LR cells; assay: Proliferation assay (acid phosphatase), Lapatinib-resistant HCC1954; format: cell-based
Experimental: as §7, §6

[17] = tested on: HER2; assay: Exogenous NmU treatment, HER2 expression; format: cell-based; conditions: 1 μM, 24-48 hours; SKBR3 and HCC1954 cells
Experimental: as §1
(§8) Total cellular proteins (30-40 μg, depending on the specific protein's abundance; but constant for any given protein) were resolved on 6-10% SDS-PAGE and transferred to PVDF membranes (Millipore, Ireland). Primary antibodies used included EGFR (Neomarker); HER2 (Calbiochem); Akt, p-Akt (Cell Signalling); NmU-R1 (Sigma-Aldrich); NmU-R2 (LifeSpan Biosciences); β-actin (Sigma-Aldrich). Membranes were incubated with appropriate horseradish peroxidase-conjugated secondary antibodies (Cell Signalling) and proteins were visualized by chemiluminescence (Millipore). Detection was performed with a Chemidoc exposure system (Bio-Rad Laboratories). ELISA kit for NmU (Peninsula Laboratories, US), HER2 (Calbiochem, US), p-HER2, EGFR, p-EGFR (R&D Systems, US) were used according to the manufacturer's instructions.

[18] = tested on: EGFR; assay: Exogenous NmU treatment, EGFR expression; format: cell-based; conditions: 1 μM, 24-48 hours
Experimental: as §1, §8

Q: Which “level of resistance induced by exogenous NmU” value [1] does the source give for `CN(C)C/C=C/C(=O)Nc1cc2c(Nc3ccc(F)c(Cl)c3)ncnc2cc1O[C@H]1CCOC1` [Afatinib] here?
A: The value was 1.1 fold.

Q: And the inhibition at 0.5 µM ([2]; 0.5 μM, 72 hours, NmU-1/NmU-2 siRNA vs SCR, range over cell lines and siRNAs, read-out: further inhibition of growth with NmU knock-down)?
A: Its inhibition at 0.5 µM is 18 to 47%.

Q: What about the “induced NmU mRNA in CM” value [3] of the same compound?
A: Its value is 3.3±0.49 fold.

Q: What about the “induced NmU mRNA in cells” value [3] of the same compound?
A: Its value is 3±0.38 fold.

Q: Which results are given for `CS(=O)(=O)CCNCc1ccc(-c2ccc3ncnc(Nc4ccc(OCc5cccc(F)c5)c(Cl)c4)c3c2)o1` [Lapatinib]?
A: anti-proliferative effects in NmU-transfected compared to mock-transfected cells [4]: significantly compromised; anti-proliferative effects in NmU-transfected compared to mock-transfected cells [5]: significantly compromised; innate sensitivity/resistance [6]: sensitive; innate sensitivity/resistance [7]: unresponsive; level of resistance induced by exogenous NmU [1]: 1.1 fold; IC50 [8]: ~1000 nM; IC50 [9]: ~5000 nM; IC50 [10]: 90 nM; IC50 [11]: 300 nM; innate sensitivity/resistance [12]: resistant; further inhibition of proliferation with NmU knock-down ([2]; drug at IC50 concentration, 72 hours, NmU-1/NmU-2 siRNA vs SCR, range over cell lines and siRNAs): 12-49%; innate sensitivity/resistance [13]: sensitive; IC50 ([14]; Homo sapiens, SK-BR-3, 120 h, read-out: concentration that inhibits 50% of proliferation (IC50), SKBR3-LR, five days): ~3000 nM; fold resistance ([14]; SKBR3-LR in relation to SKBR3-Ag): 29.8±2.2 fold; levels of NmU mRNA detectable in CM [15]: significantly higher; levels of NmU mRNA detectable in CM ([3]; HCC1954, 1 μM, vs untreated control CM): significantly higher; fold resistance ([16]; HCC1954-LR compared to HCC1954-Ag): 19.1±2.8 fold; IC50 ([16]; Homo sapiens, HCC1954, 120 h, read-out: concentration that inhibits 50% of proliferation (IC50), HCC1954-LR, five days): ~5000 nM

Q: Which results are given for `CCOc1cc2ncc(C#N)c(Nc3ccc(OCc4ccccn4)c(Cl)c3)c2cc1NC(=O)/C=C/CN(C)C` [Neratinib]?
A: anti-proliferative effects in NmU-transfected compared to mock-transfected cells [4]: significantly compromised; anti-proliferative effects in NmU-transfected compared to mock-transfected cells [5]: significantly compromised; level of resistance induced by exogenous NmU [1]: 1.1 fold; inhibition at 1 µM ([2]; 72 h, read-out: further inhibition of growth with NmU knock-down): 19 to 58%; induced NmU mRNA in CM [3]: 3.6±1 fold; induced NmU mRNA in cells [3]: 3.6±0.54 fold

Q: Which “expression of HER2 protein” value [17] does the source give for “NmU-25: exogenous NeuromedinU 25 amino acid active peptide (Bachem) (FRVDEEFQSPFASQSRGYFLFRPRN)” here?
A: Its value is “induced expression”.

Q: And the “expression of EGFR protein” value ([18]; SKBR3 and HCC1954 cells)?
A: The value was “induced expression”.

Q: What about the pEGFR ([18]; SKBR3 cells) of the same compound?
A: The pEGFR was “induced expression”.
